Consider 38 compounds from US20230257393A1, “MACROMOLECULE-SUPPORTED THIENOAZEPINE COMPOUNDS, AND USES THEREOF” (BOLT BIOTHERAPEUTICS, INC., priority 2020, published 2023).

For one assay, the target named is T1, human TLR7 (Homo sapiens, UniProt Q9NYK1).
T1 construct: host or cells: HEK293 reporter cells
T1 sequence (Q9NYK1 27-1049): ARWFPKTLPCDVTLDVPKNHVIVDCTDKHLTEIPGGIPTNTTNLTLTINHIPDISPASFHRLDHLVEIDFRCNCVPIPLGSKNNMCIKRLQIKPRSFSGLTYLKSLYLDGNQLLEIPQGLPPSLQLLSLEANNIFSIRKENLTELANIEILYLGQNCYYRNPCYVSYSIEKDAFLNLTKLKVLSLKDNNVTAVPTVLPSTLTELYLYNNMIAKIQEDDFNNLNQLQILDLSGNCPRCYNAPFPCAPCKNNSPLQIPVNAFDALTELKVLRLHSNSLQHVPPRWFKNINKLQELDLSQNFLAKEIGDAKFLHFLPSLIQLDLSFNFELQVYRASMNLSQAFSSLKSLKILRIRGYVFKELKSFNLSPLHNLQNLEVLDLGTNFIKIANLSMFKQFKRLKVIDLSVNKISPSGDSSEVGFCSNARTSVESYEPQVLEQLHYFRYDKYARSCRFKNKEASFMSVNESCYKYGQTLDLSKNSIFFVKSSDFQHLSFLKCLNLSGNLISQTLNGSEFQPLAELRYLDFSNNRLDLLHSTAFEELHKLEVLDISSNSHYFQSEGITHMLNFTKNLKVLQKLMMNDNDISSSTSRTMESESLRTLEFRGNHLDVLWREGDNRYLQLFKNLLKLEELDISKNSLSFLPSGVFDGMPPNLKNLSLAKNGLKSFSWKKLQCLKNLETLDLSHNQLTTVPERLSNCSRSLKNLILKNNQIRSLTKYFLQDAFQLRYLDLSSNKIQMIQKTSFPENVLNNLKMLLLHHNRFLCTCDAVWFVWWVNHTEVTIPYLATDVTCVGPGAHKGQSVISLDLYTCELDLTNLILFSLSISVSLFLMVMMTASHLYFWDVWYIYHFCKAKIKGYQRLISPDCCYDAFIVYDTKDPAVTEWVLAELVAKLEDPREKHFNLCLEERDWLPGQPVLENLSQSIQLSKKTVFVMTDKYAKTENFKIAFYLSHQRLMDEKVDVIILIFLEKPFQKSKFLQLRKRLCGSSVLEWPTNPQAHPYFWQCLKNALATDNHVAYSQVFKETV
The assay can be described thus: HEK Reporter Assay, HEK293 NFKB reporter cells expressing human TLR7. The format is cell-based. As to conditions: read-out: HEK293 hTLR7 EC50. As for the experimental part: (§1) Each compound was synthesized, purified, and characterized by mass spectrometry and shown to have the mass indicated. Additional experimental procedures are found in the Examples. Activity against HEK293 NFKB reporter cells expressing human TLR7 or human TLR8 was measured according to Example 202.
(§2) HEK293 reporter cells expressing human TLR7 or human TLR8 were purchased from Invivogen and vendor protocols were followed for cellular propagation and experimentation. Briefly, cells were grown to 80-85% confluence at 5% CO2 in DMEM supplemented with 10% FBS, Zeocin, and Blasticidin. Cells were then seeded in 96-well flat plates at 4×10^4 cells/well with substrate containing HEK detection medium and immunostimulatory molecules. Activity was measured using a plate reader at 620-655 nm wavelength.
(In a reporter assay the amount or activity of a reporter protein is the signal.)

Another assay addresses T2, human TLR8 (Homo sapiens, UniProt Q9NR97).
T2 construct: host or cells: HEK293 reporter cells
T2 sequence (Q9NR97 27-1041): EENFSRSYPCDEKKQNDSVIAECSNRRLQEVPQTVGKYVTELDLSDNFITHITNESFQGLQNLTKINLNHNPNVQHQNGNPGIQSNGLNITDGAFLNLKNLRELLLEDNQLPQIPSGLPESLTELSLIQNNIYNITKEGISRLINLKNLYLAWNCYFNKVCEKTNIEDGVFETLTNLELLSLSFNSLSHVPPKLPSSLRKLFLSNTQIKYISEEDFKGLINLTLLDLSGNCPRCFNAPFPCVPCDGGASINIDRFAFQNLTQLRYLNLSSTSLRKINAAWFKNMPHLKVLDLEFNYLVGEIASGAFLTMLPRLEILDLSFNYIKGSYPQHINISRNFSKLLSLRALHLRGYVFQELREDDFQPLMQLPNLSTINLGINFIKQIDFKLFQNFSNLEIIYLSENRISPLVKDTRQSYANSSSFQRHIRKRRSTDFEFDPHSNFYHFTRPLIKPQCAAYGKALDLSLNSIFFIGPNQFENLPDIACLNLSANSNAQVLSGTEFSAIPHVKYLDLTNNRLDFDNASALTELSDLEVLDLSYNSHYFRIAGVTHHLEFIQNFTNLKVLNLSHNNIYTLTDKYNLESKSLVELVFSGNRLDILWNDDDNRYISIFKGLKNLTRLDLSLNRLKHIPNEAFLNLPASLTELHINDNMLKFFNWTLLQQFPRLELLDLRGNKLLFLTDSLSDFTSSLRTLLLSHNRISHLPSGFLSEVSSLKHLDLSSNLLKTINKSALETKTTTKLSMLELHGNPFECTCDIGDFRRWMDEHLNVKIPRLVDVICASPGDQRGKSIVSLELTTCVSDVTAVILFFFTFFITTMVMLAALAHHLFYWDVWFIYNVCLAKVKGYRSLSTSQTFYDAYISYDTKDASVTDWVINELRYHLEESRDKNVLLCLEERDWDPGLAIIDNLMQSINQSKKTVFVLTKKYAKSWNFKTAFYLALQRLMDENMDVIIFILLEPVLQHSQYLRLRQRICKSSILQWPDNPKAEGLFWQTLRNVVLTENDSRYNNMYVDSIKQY
The assay can be described thus: HEK Reporter Assay, HEK293 NFKB reporter cells expressing human TLR8. It counts as cell-based. As to conditions: read-out: HEK293 hTLR8 EC50. On the procedure: as §1, §2

Structures are written as SMILES. Where two headings read alike, the source gives them in different places.

For `CCCN(CC#CCNC(=O)OC(C)(C)C)C(=O)C1=Cc2sccc2N=C(N)C1` [TAZ-16, tert-butyl N-[4-[(5-amino-6H-thieno[3,2-b]azepine-7-carbonyl)-propyl-amino]but-2-ynyl]carbamate], on human TLR7 (Table 1a), the EC50 is over 9 µM.
Consider `CCCN(C[C@H]1CC[C@@H](CN)CC1)C(=O)C1=Cc2sccc2N=C(N)C1` [TAZ-118], for which the concentration giving a half-maximal response (EC50) on human TLR7 (Table 1c) was at least 9 µM.
Same read-out and setting: for `CCCN(CCC)C(=O)C1=Cc2scc(C)c2N=C(N)C1` [TAZ-168] the value was at least 9 µM.
Take `CCCN(Cc1ccc(CN(C)C)cc1C(F)(F)F)C(=O)C1=Cc2sc(CCCCCNC(=O)OC(C)(C)C)cc2N=C(N)C1` [TAZ-143]: the EC50 at human TLR8 (Table 1c) is at least 9 µM.
Take `CCCN(CC#CCNC(=O)OC(C)(C)C)C(=O)C1=Cc2sc(Br)cc2N=C(N)C1` [TAZ-10, tert-butyl N-[4-[(5-amino-2-bromo-6H-thieno[3,2-b]azepine-7-carbonyl)-propyl-amino]but-2-ynyl]carbamate]: the EC50 on human TLR8 (Table 1a) is over 9 µM.
`CCCN(OCC)C(=O)C1=Cc2sc(CN3CC(CN)C3)cc2N=C(N)C1` [TAZ-211]: on human TLR7 (Table 1c), the 50% effective concentration (EC50) was at least 9 µM.
For the compound `CCCN(CCCNC(=O)OC1CCC1)C(=O)C1=Cc2sc(CN3CCNCC3)cc2N=C(N)C1` [TAZ-169], the 50% effective concentration (EC50) at human TLR8 (Table 1c) was at least 9 µM.
`CCCN(OCC)C(=O)C1=Cc2sc(CN3CCC(N)CC3)cc2N=C(N)C1` [TAZ-243]: at human TLR7 (Table 1c), the EC50 was at least 9 µM.
With `CCCN(CCC)C(=O)C1=Cc2sc(CCCCCN)cc2N=C(N)C1` [TAZ-14, 5-amino-2-(5-aminopentyl)-N,N-dipropyl-6H-thieno [3,2-b]azepine-7-carboxamide], at human TLR7 (Table 1a), the EC50 is over 9 µM.
As for `CCCN(C[C@H]1CC[C@@H](CNC(=O)OC(C)(C)C)CC1)C(=O)C1=Cc2sccc2N=C(N)C1` [TAZ-119], the EC50 on human TLR8 (Table 1c) is at least 9 µM.
For the compound `CCCN(CCCNC(=O)CC(C)(C)C)C(=O)C1=Cc2sc(CN3CCNCC3)cc2N=C(N)C1` [TAZ-139], the EC50 at human TLR8 (Table 1c) is at least 9 µM.
With `CCCN(CCC)C(=O)C1=Cc2sc(CNC(=O)CN)cc2N=C(N)C1` [TAZ-92], on human TLR7 (Table 1b), the EC50 is over 9 µM.
With `CCCN(OCC)C(=O)C1=Cc2sc(CC3CCN(C(=O)OC(C)(C)C)CC3)cc2N=C(N)C1` [TAZ-179], at human TLR7 (Table 1c), the EC50 is at least 9 µM.
Consider `CCCN(CCCNC(=O)OC1CCC1)C(=O)C1=Cc2sc(CC3CNC3)cc2N=C(N)C1` [TAZ-181], for which the EC50 on human TLR8 (Table 1c) is at least 9 µM.
As to `CCCN(OCC)C(=O)C1=Cc2sc(CN3C[C@@H]4CN(C(=O)OC(C)(C)C)C[C@@H]4C3)cc2N=C(N)C1` [TAZ-242], the EC50 at human TLR7 (Table 1c) is at least 9 µM.
The same measure, in the same setting: the result for `CCCN(OCC)C(=O)C1=Cc2sc(CN3CCN(c4cccc(C(=O)OC(C)(C)C)c4)CC3)cc2N=C(N)C1` [TAZ-216] reads at least 9 µM.
Consider `CCCN(OCC)C(=O)C1=Cc2sc(CN3C[C@H]4CNC[C@H]4C3)cc2N=C(N)C1` [TAZ-247], for which the 50% effective concentration (EC50) at human TLR7 (Table 1c) was at least 9 µM.
As to `CCCN(Cc1ccc(CNC)cc1)C(=O)C1=Cc2sc(CCCCCN(C)C)cc2N=C(N)C1` [TAZ-65, 5-amino-2-[5-(dimethylamino)pentyl]-N-[[4-(methylaminomethyl)phenyl]methyl]-N-propyl-6H-thieno[3,2-b]azepine-7-carboxamide], the 50% effective concentration (EC50) at human TLR7 (Table 1b) is over 9 µM.
For `CCCN(C(=O)C1=Cc2sc(CCCCCNC(=O)OC(C)(C)C)cc2N=C(N)C1)C1CC1` [TAZ-123], the EC50 on human TLR8 (Table 1c) was at least 9 µM.
As for `CCCN(OCC)C(=O)C1=Cc2sc(CN3C[C@H]4CN(C(=O)OC(C)(C)C)C[C@@H]4C3)cc2N=C(N)C1` [TAZ-248], on human TLR7 (Table 1c), the EC50 is at least 9 µM.
Same read-out and setting: for `CCCN(OCC)C(=O)C1=Cc2sc(CN3Cc4ccc(NC(=O)CCN)cc4C3)cc2N=C(N)C1` [TAZ-201] the value was at least 9 µM.
As to `CCCN(CCCNC(=O)OC1CCC1)C(=O)C1=Cc2sc(CNC(=O)Cc3ccccc3)cc2N=C(N)C1` [TAZ-204], at human TLR8 (Table 1c), the concentration giving a half-maximal response (EC50) is 2.25 µM.
Turning to `CCCN(OCC)C(=O)C1=Cc2sc(C#CC3(O)CN(C(=O)OC(C)(C)C)C3)cc2N=C(N)C1` [TAZ-188], at human TLR7 (Table 1c), the concentration for a half-maximal effect (EC50) is at least 9 µM.
On the same count and under the same terms, for `CCCN(CCCNC(=O)OC1CCC1)C(=O)C1=Cc2sc(C#CC3CCN(C(=O)OC(C)(C)C)CC3)cc2N=C(N)C1` [TAZ-165] the value was at least 9 µM; for `CCCN(OCC)C(=O)C1=Cc2sc(C#CC3CN(C(=O)OC(C)(C)C)C3)cc2N=C(N)C1` [TAZ-187], at least 9 µM.
Take `CCCN(CCCNC(=O)OC1CCC1)C(=O)C1=Cc2sc(CC3CCNCC3)cc2N=C(N)C1` [TAZ-185, cyclobutyl N-[3-[[5-amino-2-(4-piperidylmethyl)-6H-thieno[3,2-b]azepine-7-carbonyl]-propyl-amino]propyl]carbamate]: the 50% effective concentration (EC50) on human TLR8 (Table 1c) is at least 9 µM.
On to `CCCN(Cc1ncco1)C(=O)C1=Cc2sc(CC3CNC3)cc2N=C(N)C1` [TAZ-256], for which, at human TLR7 (Table 1c), the EC50 was at least 9 µM.
On to `CCCN(C[C@H]1C[C@H](CN)C1)C(=O)C1=Cc2sccc2N=C(N)C1` [TAZ-69], for which the 50% effective concentration (EC50) on human TLR7 (Table 1b) is over 9 µM.
Regarding `CCCN(CCCNC(=O)C(C)(C)C)C(=O)C1=Cc2sc(CCCCCN)cc2N=C(N)C1` [TAZ-142], at human TLR8 (Table 1c), the half-maximal effective concentration (EC50) is at least 9 µM.
With `CCCN(OCC)C(=O)C1=Cc2sc(CN3CC4(CCN4Cc4ccccc4)C3)cc2N=C(N)C1` [TAZ-246], the concentration for a half-maximal effect (EC50) at human TLR7 (Table 1c) is at least 9 µM.
Take `CCCN(CCCNC(=O)OC1CCC1)C(=O)C1=Cc2sc(CN3CCN(c4ccc(C(=O)OC)cc4)CC3)cc2N=C(N)C1` [TAZ-180]: the EC50 on human TLR8 (Table 1c) is at least 9 µM.
In the case of `CCCN(Cc1ccc(CN)cc1)C(=O)C1=Cc2sccc2N=C(N)C1` [TAZ-30, 5-amino-N-(4-(aminomethyl)benzyl)-N-propyl-6H-thieno[3,2-b]azepine-7-carboxamide], the EC50 on human TLR7 (Table 1a) was over 9 µM.
`CCCN(CC1CC1)C(=O)C1=Cc2sc(CCCCCNC(=O)OC(C)(C)C)cc2N=C(N)C1` [TAZ-125]: the concentration for a half-maximal effect (EC50) on human TLR8 (Table 1c) is at least 9 µM.
Same read-out and setting: for `CCCN(OCC)C(=O)C1=Cc2sc(C#CC3CCN(C(=O)OC(C)(C)C)CC3)cc2N=C(N)C1` [TAZ-173] the value was at least 9 µM.
Regarding `CCCN(CC#CCN)C(=O)C1=Cc2sccc2N=C(N)C1` [TAZ-17, 5-amino-N-(4-aminobut-2-ynyl)-N-propyl-6H-thieno[3,2-b]azepine-7-carboxamide], on human TLR7 (Table 1a), the EC50 was over 9 µM.
Same read-out and setting: the result for `CCCN(CCC)C(=O)C1=Cc2sccc2N=C(N)C1` [TAZ-2, 5-amino-N,N-dipropyl-6H-thieno[3,2-b]azepine-7-carboxamide] reads over 9 µM.
Turning to `CCCN(CCC)C(=O)C1=Cc2sc(COCCN)cc2N=C(N)C1` [TAZ-81], at human TLR7 (Table 1b), the EC50 is over 9 µM.
Take `CCCN(Cc1cnc(CN(C)C)c(C(F)(F)F)c1)C(=O)C1=Cc2sc(CCCCCN)cc2N=C(N)C1` [TAZ-127]: the half-maximal effective concentration (EC50) on human TLR7 (Table 1c) is at least 9 µM.

A word on the EC50: it is the concentration giving half of the maximal effect.
